Source: PMC5630639 (Scientific Reports, 2017)
Entries after “also recorded” stand apart in the source; their conditions may differ.

Key:
[1] = test system: MGC-803 cells; experiment: Cell cycle analysis by flow cytometry; assay type: cell-based, human; conditions: for G2/M population: 24 h (Fig. 3A)
Protocol: MGC-803 cells were incubated in the absence and presence of 28. Subsequently, the cells were fixed with 70% alcohol in PBS. The fixed cells were incubated with RNase (1 µg/mL) propidium iodide (50 µg/mL) for 2 h. Flow cytometry analysis was performed using BD FACS (Becton Dickinson, San Jose, CA, USA).

[2] = test system: three cancer cell lines (MGC-803, MCF-7, A549); experiment: CCK-8 proliferation assay, three cancer cell lines together; assay type: cell-based; conditions: Homo sapiens, 48 h, read-out: IC50 values toward three cancer cell lines
Protocol: All synthesized β-lactam-azide derivatives were evaluated for their antiproliferative activity against three cancer cell lines (MGC-803, MCF-7, A549) using CCK-8 proliferation assay. The well-known anticancer drug CA-4P was used as a control[36],[37].
MGC-803 cell line was obtained from the Chinese Academy of Sciences (Shanghai, China). MCF-7 and A549 were from the National Cell Center, China. MGC-803 cells were cultured in DMEM culture medium (DMEM, Biological Industries, Kibbutz Beit Haemek, Israel). A549 and MCF-7 cells were cultured in 1640 medium (1640, Biological Industries, Kibbutz Beit Haemek, Israel). All medium were supplemented with 10% fetal bovine serum, 100 U/ml penicillin (North China Pharmaceutical group Co.), and 100 µg/ml streptomycin (North China Pharmaceutical group Co.). All cells were cultured at 37 °C in a humidified incubator containing 5% CO2.
Synthesized analogues used in the study were dissolved in 100% cell culture grade DMSO and the final concentration of DMSO as <0.1% for testing on cancer cell lines. […] The absorbance was measured using a microplate reader (BioTek Instrument, Inc. Vermont, USA) with a test wavelength of 450 nm. The absorbance levels were corrected against untreated control absorbance values. […]

[3] = test system: tubulin; experiment: In vitro tubulin polymerization assay; assay type: biochemical; conditions: 5.6 mg/ml tubulin, absorbance 340 nm, 37 °C; read-out: tubulin polymerization inhibition IC50
Protocol: The in vitro tubulin polymerization inhibitory activity of 28 was then evaluated. Purified and unpolymerized tubulin was incubated with 28 at indicated concentrations, and tubulin polymerization was measured by the method originally described by D. Bone et al.[46].
An amount of 5.6 mg/ml tubulin was resuspended in PEM buffer [80 mM PIPES (pH 6.9), 1 mM EGTA, 0.5 mM MgCl2, 1 mM […], 10.2% (v/v) glycerol] and then was preincubated with compound 28 or vehicle DMSO on ice. The reaction was monitored by a spectrophotometer in absorbance at 340 nm at 37 °C every 5 min. The final concentrations of 28 were listed as follows: 0, 1, 2, and 4 µM.

[4] = test system: MGC-803 cells; experiment: Annexin V-FITC/PI apoptosis analysis by flow cytometry; assay type: cell-based, human; conditions: 24 h
Protocol: We next evaluated whether 28 induces apoptosis in MGC-803 cells by flow cytometry analysis of propidium iodide (PI) and Annexin V stained cells. […] When MGC-803 cells were incubated with 28 at 0.1, 0.2, and 0.3 μM for 24 h, the percentages of early apoptotic cells were 12.4%, 40.5%, and 49.7%, respectively and those of late apoptotic cells 2.1%, 10.1%, and 9.4%, respectively (Fig. 4A). Bcl-2 family proteins were crucial components of mitochondrial stress-induced cellular apoptosis. Thus, the expression of apoptosis-related proteins was also determined.
An Annexin V-FITC/PI kit (KeyGEN BioTECH, Nanjing, China) was used to detect apoptosis. Cells were seeded in 6-well plates and treated with 0, 0.1, 0.2 and 0.3 µM of 28 for 24 h. Then MGC-803 cells were collected and suspended in binding buffer containing Annexin V-FITC (0.5 mg/mL) and PI (0.5 mg/mL) and incubated in dark for 20 min and analyzed by flow cytometry (Becton, Dickinson and Company, NJ). The apoptosis related proteins of western blot analysis were conducted according to our previously reported method[31],[32].

[5] = test system: MGC-803 xenograft; experiment: MGC-803 xenograft model in nude mice; assay type: in vivo, BALB/c nude mice; conditions: for average tumor weight: 21 days (control 1.23 ± 0.28); for mean tumor volume at end of observation period: 21 days (control 1665.98 ± 568.36)
Protocol: To evaluate the potential antitumor effects of 28 in vivo, a MGC-803 xenograft model were established in nude mice by subcutaneously injecting MGC-803 cells at its logarithmic phase into the right flank of mice[56]. Tumor bearing mice were then randomly assigned to five groups (control, 100 mg/kg CA-4P, 25, 50, 100 mg/kg 28) with 10 mice per group. Then, the mice were gavaged with saline (control), CA-4P and different concentrations of 28 in saline solution daily. […] At the end of the observation period, mean tumor volumes of control, CA-4P, 25, 50, and 100 mg/kg 28 groups were 1665.98 ± 568.36 mm^3, 642.61 ± 449.92 mm^3, 788.18 ± 435.92 mm^3, 1125.93 ± 668.25 mm^3 and 1273.88 ± 513.69 mm^3, respectively. […] The antitumor activity of 28 in vivo was similar to that of CA-4P.
Animals were treated according to protocols established by the ethics committee of Zhengzhou University and the in vivo experiments were carried out in accordance with the approved guidelines and approved by the ethics committee of Zhengzhou University. BALB/c nude mice (18 g, aged 4–5 weeks) were purchased from Human SJA Laboratory Animal Co. Ltd. (Hunan, China). Mice were subcutaneously implanted with MGC-803 cells (5 × 10^6 cells per mouse) on the right flank of nude mice. Once tumor volumes reached to approximately 100 mm^3, the mice were randomly divided into corresponding saline, CA-4P (100 mg/kg), 28 (100 mg/kg), 28 (50 mg/kg) and 28 (25 mg/kg) treatment groups (n = 10 mice for each group). The treatment groups received intragastric administration of 28 and CA-4P per day for a period of 21 days. Then, the mice were euthanized and tumors isolated and weighed. Their body weights were measured and tumor sizes determined by vernier caliper measurement every other day.

For COc1cc(N2C(=O)[C@H](c3cccs3)[C@H]2c2cccc(N=[N+]=[N-])c2)cc(OC)c1OC (relative stereo) [Compound 28, trans-4-(3-azidophenyl)-3-(thiophen-2-yl)-1-(3,4,5-trimethoxyphenyl)azetidin-2-one], the “cells at the G2/M phase” value ([1]; 0.1 μM, 12 h (Fig. 3C)) was 12.63%, the G2/M population ([1]; 0.1 μM) was 14.13% and the “cells at the G2/M phase” value ([1]; 0.1 μM, 36 h (Fig. 3C)) was 44.59%. It also gave a G2/M population ([1]; 0.2 μM) of 23.42%, a G2/M population ([1]; 0.3 μM) of 44.37% and an IC50 [2] of 0.106 to 0.507 µM. The IC50 [3] was 2.26 µM, the early apoptotic cells ([4]; 0.1 μM) was 12.4% and the late apoptotic cells ([4]; 0.1 μM) was 2.1%. For the same compound, the early apoptotic cells ([4]; 0.2 μM) was 40.5%, the late apoptotic cells ([4]; 0.2 μM) was 10.1% and the early apoptotic cells ([4]; 0.3 μM) was 49.7%. The late apoptotic cells ([4]; 0.3 μM) was 9.4%, the “inhibitory rate (tumor weight)” value ([5]; 25 mg/kg, intragastric daily, 21 days) was 59.34% and the average tumor weight ([5]; 25 mg/kg, intragastric daily) was 0.53 ± 0.20 g. For the same compound, the “mean tumor volume at end of observation period” value (“mean tumor volume at end” below) ([5]; 25 mg/kg, intragastric daily) was 788.18 ± 435.92 mm^3, the “inhibitory rate (tumor weight)” value ([5]; 50 mg/kg, intragastric daily, 21 days) was 30.78% and the average tumor weight ([5]; 50 mg/kg, intragastric daily) was 0.85 ± 0.32 g. The “mean tumor volume at end” value ([5]; 50 mg/kg, intragastric daily) was 1125.93 ± 668.25 mm^3, the tumor growth ([5]; 100 mg/kg, intragastric daily) was “considerable suppression of tumor growth” and the “inhibitory rate (tumor weight)” value ([5]; 100 mg/kg, intragastric daily, 21 days) was 10.99%. The average tumor weight ([5]; 100 mg/kg, intragastric daily) was 1.09 ± 0.31 g, the “mean tumor volume at end” value ([5]; 100 mg/kg, intragastric daily) was 1273.88 ± 513.69 mm^3 and the “body weight of mice” value ([5]; oral administration, 21 days) was “without causing significant loss of body weight; also recorded: without causing any obvious loss of body weight”.
